# Read-outs that look alike come from different tables or passages of the source.
# Assays:
# equine BChE (eqBChE) [1] = biological target: T1, equine BChE (eqBChE) (Equus caballus, UniProt P81908); assay: Determination of IC50 vs. eqBChE; format: biochemical; conditions: IC50 ± SE, 100 µM acetylthiocholine, compound 18 after incubation for 1 h
# T1 construct: purchased Sigma-Aldrich (Milan, Italy)
# Experimental: The recorded data were analyzed with the enzyme kinetic module of SigmaPlot (Systat Software, Palo alto, CA, USA). Each measurement was replicated three times and the IC50 value obtained was confirmed by repeating the experiment twice. […] The IC50 plot of the tested compound is reported in the Supplementary Materials (Figure S3).
# The recorded data were analyzed by the enzyme kinetic module of SigmaPlot, plotting the percentages of inhibition as a function of the different concentrations of inhibitor, expressed in logarithmic scale, in order to obtain the sigmoid graph, from which it was possible to determinate the IC50 value of the tested compound. The IC50 value was confirmed by repeating the experiment twice.
# equine BChE (eqBChE) [2] = biological target: T1, equine BChE (eqBChE); assay: Reversibility of inhibition vs. eqBChE (ultrafiltration and washing); format: biochemical; conditions: for inhibition at 5.4 µM: compound 18 5.4 µM, eqBChE 1.25 U
# Experimental: Moreover, it was evaluated whether the inhibition mechanism of carbamate 18 towards eqBChE is reversible, irreversible or pseudo-irreversible. For this purpose, the percentages of inhibition were determined both after one hour of the incubation of compound 18 (5.4 µM) with eqBChE (1.25 U), both following the removal of the inhibitor and the washing of the enzyme, carried out through ultrafiltration devices for the concentration of biological samples [35, 36]. To validate the method, the same study was performed with carbaryl (54 µM), a known carbamoylating cholinesterase inhibitor.
# After the incubation phase, the solution containing the inhibitor not bound to the enzyme was removed by centrifugation, retaining eqBChE on the membrane of the ultrafiltration devices. Then the enzyme was washed with phosphate buffer, to remove the bound inhibitor and to restore the enzyme activity.
# Three solutions were prepared in 0.1 M phosphate buffer (pH = 7.4), containing eqBChE (0.50 UmL^−1), DTNB (0.3 mM) and acetylthiocholine (10 mM), respectively. A solution of compound 18 in DMSO (2.7 mM) was prepared. Then six Vivaspin® were used: • three were prepared with 2.5 mL of eqBChE solution (0.50 UmL^−1) and 5 µL of inhibitor solution; • three were prepared with 2.5 mL of eqBChE solution (0.50 UmL^−1) and 5 µL of DMSO.
# The Vivaspin® thus prepared were incubated for 1 h at 25 °C. After this time the percentage of inhibition was determined following the Ellman method. The blank was recorded by taking 500 µL from the Vivaspin® and diluting them in the cuvette in 2.5 mL of DTNB solution (0.3 mM). The reaction was activated by adding 30 μL of acetylthiocholine solution (10 mM), so as to obtain a final concentration of 100 µM in the cuvette. The absorbance variation was measured between 0.5 and 1.5 min at 412 nm, repeating the measurement for each of the six Vivaspin®.
# After this procedure the first centrifugation of the Vivaspin® was carried out for 60 min at 4000 rpm and subsequently the solutions that crossed the membrane and settled in the filtrate tube were removed. In this way the solutions present in the concentrator body were concentrated up to 100 µL. To these solutions 1 mL of 0.1 M phosphate buffer (pH = 7.4) was added and the second centrifugation was carried out for 30 min at 4000 rpm. The solutions present in the concentrator body were concentrated up to 200 µL. The second washing was carried out, adding 1 mL of buffer and centrifuging for 30 min at 4000 rpm. The solutions present in the concentrator body were concentrated up to 250 µL. A third wash was carried out adding 1 mL of buffer and centrifuging for 50 min at 4000 rpm. The solutions present in the concentrator body were concentrated up to 150 µL. At this point, to recover the concentrated solution, the filtrate tube was removed, the concentrator body was turned upside down and inserted inside the concentrate recovery cap. The Vivaspin® was centrifuged for 10 min at 4000 rpm. After this time the recovered solution was taken up with 3 mL of DTNB solution (0.3 mM) and transferred into the cuvette: blank was recorded. The reaction was activated when 30 µL of substrate solution (10 mM) were added so as to have a final concentration of 100 µM in the cuvette. The absorbance variation between 0.5 and 1.5 min was measured at 412 nm, repeating the measurement for each of the recovered solutions.
# As a positive control carbaryl was used, for which the same procedure was followed, using a 27 mM carbaryl stock solution in DMSO.
# T1 sequence (P81908 whole entry): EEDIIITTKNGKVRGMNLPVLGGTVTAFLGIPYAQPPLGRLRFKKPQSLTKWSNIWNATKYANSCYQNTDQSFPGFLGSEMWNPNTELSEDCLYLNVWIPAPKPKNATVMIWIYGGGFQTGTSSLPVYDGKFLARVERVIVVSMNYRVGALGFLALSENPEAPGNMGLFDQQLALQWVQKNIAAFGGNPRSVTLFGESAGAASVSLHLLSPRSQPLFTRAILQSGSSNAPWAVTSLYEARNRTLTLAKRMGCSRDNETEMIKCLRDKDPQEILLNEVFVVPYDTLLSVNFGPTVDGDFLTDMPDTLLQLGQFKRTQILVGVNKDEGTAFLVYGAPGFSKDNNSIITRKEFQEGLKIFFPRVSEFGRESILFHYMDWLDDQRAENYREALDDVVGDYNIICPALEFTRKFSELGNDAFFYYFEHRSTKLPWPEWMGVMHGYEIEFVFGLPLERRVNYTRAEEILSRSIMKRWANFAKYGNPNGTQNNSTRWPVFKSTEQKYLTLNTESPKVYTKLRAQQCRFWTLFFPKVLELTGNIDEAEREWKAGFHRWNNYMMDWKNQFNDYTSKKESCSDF
smiles,measurement,setting,value
"O=C(NCCCCCCNc1ccccn1)Oc1ccccc1 [Compound 18, Phenyl (6-(pyridin-2-ylamino)hexyl)carbamate]",IC50,equine BChE (eqBChE) [1],454 nM
same,inhibition at 5.4 µM,"equine BChE (eqBChE) [2]; after ultrafiltration and washing with phosphate buffer, read-out: percentage of inhibition of eqBChE after removal of inhibitor and washing of the enzyme",56.7%
same,inhibition at 5.4 µM,"equine BChE (eqBChE) [2]; before washing, read-out: percentage of inhibition of eqBChE after one hour of incubation",89.7%
same,"inhibition mechanism towards eqBChE (reversible, irreversible or pseudo-irreversible)",equine BChE (eqBChE) [2]; from restoration of enzymatic activity after washing,pseudo-irreversible
